According to patent US20190177284A1, “TETRAZOLYL-CONTAINING CYCLOPROPANECARBOXAMIDES” (Bayer Pharma Aktiengesellschaft, priority 2017, published 2019):

Molecular target: T1, human Bradykinin B1 receptor (Homo sapiens, UniProt P46663)
T1 construct: host or cells: CHO-K1
T1 sequence (P46663 1-353): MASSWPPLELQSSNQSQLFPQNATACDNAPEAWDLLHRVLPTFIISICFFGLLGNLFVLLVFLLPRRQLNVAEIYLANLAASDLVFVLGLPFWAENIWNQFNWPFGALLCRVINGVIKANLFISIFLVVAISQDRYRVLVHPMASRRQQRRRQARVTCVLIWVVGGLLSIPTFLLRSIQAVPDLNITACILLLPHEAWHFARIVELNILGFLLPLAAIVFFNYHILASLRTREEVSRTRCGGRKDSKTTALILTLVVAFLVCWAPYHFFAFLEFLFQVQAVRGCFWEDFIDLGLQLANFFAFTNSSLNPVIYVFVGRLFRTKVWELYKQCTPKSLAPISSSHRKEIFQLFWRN
Test: Calcium flux Assay (FLIPR) with cells expressing human Bradykinin B1 receptor (hB1)
Assay type: cell-based
Settings: absence of 0.1% BSA in assay buffer; CHO-K1 cell line expressing human B1 receptor; agonist Lys-(Des-Arg)-Bradykinin; read-out: hB1 free IC50
Procedure: The potency to inhibit the Bradykinin B1 receptor was determined for the compound examples of this invention in a cell-based fluorescent calcium-mobilisation assay. The assay measures the ability of compound examples to inhibit Bradykinin B1 receptor agonist-induced increase of intracellular free Ca^2+ in the cell line expressing Bradykinin B1 receptor. Specifically, calcium indicator-loaded cells are pre-incubated in the absence or presence of different concentrations of compound examples followed by the stimulation with a selective Bradykinin B1 receptor agonist peptide. The change of the intracellular Ca^2+ concentration is monitored with a fluorescent plate reader FLIPR^TETRA®
Calcium flux Assays (FLIPR) with cells expressing human Bradykinin B1 receptor (hB1) Calcium flux Assay (FLIPR) with recombinant cells for Bradykinin B1 receptor antagonist, either in the presence (hB1 IC50) or absence (hB1 free IC50) of 0.1% Bovine Serum Albumin (BSA) in assay buffer.
CHO—K1 cell line expressing human B1 receptor was purchased from Euroscreen (Gosselies, Belgium, with reference name hB1-D1). The cells were grown in Nutrient Mixture Ham's F12 (Sigma) containing 10% Foetal bovine serum (Sigma) and 400 μg/mL G418 (Sigma), 5 μg/mL puromycin (Sigma).
For the calcium flux assay, 80% confluent cells were detached from the culture vessels with Versene (Gibco), and seeded into 384-well plates (Cell binding Surface; Corning, N.Y.; #3683) at a density of 15,000 cells per well. Cells were seeded in a volume of 50 μL in medium without antibiotics and incubated overnight in a humidified atmosphere with 5% CO2 at 37° C. […] The calcium indicator loaded cells were incubated at 37° C. for 2 hrs. Extracellular dye was then removed and each well was filled with 45 μL of assay buffer. Cell plates were kept in dark until used. Example compounds were assayed at 8 concentrations in triplicate. Serial 10-fold dilutions in 100% DMSO were made at a 100-times higher concentration than the final concentration, and then diluted 1:10 in assay buffer. 5 μL of each diluted compound was added to the well of cell plates (yielding final concentration with 1% DMSO), and incubated for 30 min at 28° C. before the addition of B1 receptor agonist on the FLIPR instrument.
Agonist plates contained the agonist Lys-(Des-Arg)-Bradykinin (Bachem, Brackley) at 3.5×EC90 in assay buffer with 1% DMSO. The addition of agonist 20 μl per well to the assay plate was carried out on the FLIPR instrument while continuously monitoring Ca^2+-dependent fluorescence at 538 nm. A peptide antagonist Lys-(Des-Arg-Leu)-Bradykinin (Bachem, Brackley) at 20 μM was used to determine the full inhibition as control.
Peak fluorescence was used to determine the response to agonist obtained at each concentration of example compound by the following equation:
% Response=100*(RFU(example compound)−RFU(control))/(RFU(DMSO)−RFU(control)) • RFU means relative fluorescence units. • Control means full inhibition by the peptide antagonist Lys-(Des-Arg-Leu)-Bradykinin at 20
The response values were plotted against the logarithm of the example compound concentrations. The example compounds were tested in triplicates per plate and mean values were plotted in Excel XLfit to determine IC50 values, percentage of maximal inhibition and the Hill slopes.
IC50 values of example compounds in Calcium flux Assay (FLIPR) as shown in table 1 were determined according to the protocol described above in the absence of 0.1% BSA in assay buffer.

| Compound | IC50 [nM] |
| --- | --- |
| CC[C@@H](C)OC(=O)c1ccc(NC(=O)C2(c3ccc(OC(F)(F)F)cc3F)CC2)cc1-c1nnn[nH]1 [Example 26, (2R)-Butan-2-yl 4-[({1-[2-fluoro-4-(trifluoromethoxy)phenyl]cyclopropyl}carbonyl)amino]-2-(1H-tetrazol-5-yl)benzoate] | 3 |
| CC[C@H](C)OC(=O)c1ccc(NC(=O)C2(c3ccc(OC(F)(F)F)cc3F)CC2)cc1-c1nnn[nH]1 [Example 27, (2S)-Butan-2-yl 4-[({1-[2-fluoro-4-(trifluoromethoxy)phenyl]cyclopropyl}carbonyl)amino]-2-(1H-tetrazol-5-yl)benzoate] | 2 |
| CC(C)(C)COC(=O)c1ccc(NC(=O)C2(c3ccc(C(F)(F)F)cc3F)CC2)cc1-c1nnn[nH]1 [Example 29, 2,2-Dimethylpropyl 4-[({1-[2-fluoro-4-(trifluoromethyl)phenyl]cyclopropyl}carbonyl)amino]-2-(1H-tetrazol-5-yl)benzoate] | 6 |
| O=C(c1ccc(NC(=O)C2(c3cccc(Cl)c3)CC2)cc1-c1nnn[nH]1)N1CCCCC1 [Example 33, 1-(3-Chlorophenyl)-N-[4-(piperidin-1-ylcarbonyl)-3-(1H-tetrazol-5-yl)phenyl]cyclopropanecarboxamide] | 633 |
| CC[C@@H](C)NC(=O)c1ccc(NC(=O)C2(c3ccc(C(F)(F)F)cc3F)CC2)cc1-c1nnn[nH]1 [Example 37, N-[(2R)-butan-2-yl]-4-[({1-[2-fluoro-4-(trifluoromethyl)phenyl]cyclopropyl}carbonyl)amino]-2-(1H-tetrazol-5-yl)benzamide] | 121 |
| CC[C@H](C)NC(=O)c1ccc(NC(=O)C2(c3ccc(C(F)(F)F)cc3F)CC2)cc1-c1nnn[nH]1 [Example 38, N-[(2S)-butan-2-yl]-4-[({1-[2-fluoro-4-(trifluoromethyl)phenyl]cyclopropyl}carbonyl)amino]-2-(1H-tetrazol-5-y)benzamide] | 80 |
| CN(C(=O)c1ccc(NC(=O)C2(c3cccc(Cl)c3)CC2)cc1-c1nnn[nH]1)C1CCCC1 [Example 40, 4-({[1-(3-Chlorophenyl)cyclopropyl]carbonyl}amino)-N-cylcopentyl-N-methyl-2-(1H-tetrazol-5-yl)benzamide] | 1240 |
| O=C(NC1CCCCC1)c1ccc(NC(=O)C2(c3ccc(C(F)(F)F)cc3F)CC2)cc1-c1nnn[nH]1 [Example 42, N-cyclohexyl-4-[({1-[2-fluoro-4-(trifluoromethyl)phenyl]cyclopropyl}carbonyl)amino]-2-(1H-tetrazol-5-yl)benzamide] | 34 |
| O=C(NCC1CCCCC1)c1ccc(NC(=O)C2(c3ccc(C(F)(F)F)cc3F)CC2)cc1-c1nnn[nH]1 [Example 44, N-(cyclohexylmethyl)-4-[({1-[2-fluoro-4-(trifluoromethyl)phenyl]cyclopropyl}carbonyl)amino]-2-(1H-tetrazol-5-yl)benzamide] | 13 |

Now from value to compound:

| IC50 [nM] | Compound |
| --- | --- |
| 14 | O=C(O[C@@H]1CCOC1)c1ccc(NC(=O)C2(c3ccc(C(F)(F)F)cc3F)CC2)cc1-c1nnn[nH]1 [Example 20, (3R)-Tetrahydrofuran-3-yl 4-[({1-[2-fluoro-4-(trifluoromethyl)phenyl]cyclopropyl}carbonyl)amino]-2-(1H-tetrazol-5-yl)benzoate] |
| 22 | O=C(OC1CCOCC1)c1ccc(NC(=O)C2(c3ccc(C(F)(F)F)cc3F)CC2)cc1-c1nnn[nH]1 [Example 21, Tetrahydro-2H-pyran-4-yl 4-[({1-[2-fluoro-4-(trifluoromethyl)phenyl]cyclopropyl}carbonyl)amino]-2-(1H-tetrazol-5-yl)benzoate] |
| 18 | O=C(OCC1CCOCC1)c1ccc(NC(=O)C2(c3ccc(C(F)(F)F)cc3F)CC2)cc1-c1nnn[nH]1 [Example 22, Tetrahydro-2H-pyran-4-ylmethyl 4-[({1-[2-fluoro-4-(trifluoromethyl)phenyl]cyclopropyl}carbonyl)amino]-2-(1H-tetrazol-5-yl)benzoate] |
| 319 | CN1CCC(OC(=O)c2ccc(NC(=O)C3(c4ccc(C(F)(F)F)cc4F)CC3)cc2-c2nnn[nH]2)CC1 [Example 23, 1-Methylpiperidin-4-yl 4-[({1-[2-fluoro-4-(trifluoromethyl)phenyl]cyclopropyl}carbonyl)amino]-2-(1H-tetrazol-5-yl)benzoate] |
| 2 | CC[C@@H](C)OC(=O)c1ccc(NC(=O)C2(c3ccc(C(F)(F)F)cc3F)CC2)cc1-c1nnn[nH]1 [Example 24, (2R)-Butan-2-yl 4-[({1-[2-fluoro-4-(trifluoromethyl)phenyl]cycloproyl}carbonyl)amino]-2-(1H-tetrazol-5-yl)benzoate] |
| 3 | CC[C@H](C)OC(=O)c1ccc(NC(=O)C2(c3ccc(C(F)(F)F)cc3F)CC2)cc1-c1nnn[nH]1 [Example 25, (2S)-Butan-2-yl 4-[({1-[2-fluoro-4-(trifluoromethyl)phenyl]cyclopropyl}carbonyl)amino]-2-(1H-tetrazol-5-yl)benzoate] |
| 3 | CC(C)COC(=O)c1ccc(NC(=O)C2(c3ccc(C(F)(F)F)cc3F)CC2)cc1-c1nnn[nH]1 [Example 28, Isobutyl 4-[({1-[2-fluoro-4-(trifluoromethyl)phenyl]cyclopropyl}carbonyl)amino]-2-(1H-tetrazol-5-yl)benzoate] |
| 2 | O=C(OC1CCC1)c1ccc(NC(=O)C2(c3ccc(C(F)(F)F)cc3F)CC2)cc1-c1nnn[nH]1 [Example 30, Cyclobutyl 4-[({1-[2-fluoro-4-(trifluoromethyl)phenyl]cyclopropyl}carbonyl)amino]-2-(1H-tetrazol-5-yl)benzoate] |
| 70 | O=C(c1ccc(NC(=O)C2(c3ccc(C(F)(F)F)cc3F)CC2)cc1-c1nnn[nH]1)N1CCCCC1 [Example 34, 1-[2-Fluoro-4-(trifluoromethyl)phenyl]-N-[4-(piperidin-1-ylcarbonyl)-3-(1H-tetrazol-5-yl)phenyl]cyclopropanecarboxamide] |
| 523 | COC1CCN(C(=O)c2ccc(NC(=O)C3(c4ccc(C(F)(F)F)cc4F)CC3)cc2-c2nnn[nH]2)CC1 [Example 36, 1-[2-Fluoro-4-(trifluoromethyl)phenyl]-N-{4-[(4-methoxypiperidin-1-yl)carbonyl]-3-(1H-tetrazol-5-yl)phenyl}cyclopropanecarboxamide] |
| 34 | O=C(NC1CCCC1)c1ccc(NC(=O)C2(c3ccc(C(F)(F)F)cc3F)CC2)cc1-c1nnn[nH]1 [Example 39, N-cyclopentyl-4-[({1-[2-fluoro-4-(trifluoromethyl)phenyl]cyclopropyl}carbonyl)amino]-2-(1H-tetrazol-5-yl)benzamide] |
| 205 | CN(C(=O)c1ccc(NC(=O)C2(c3ccc(C(F)(F)F)cc3F)CC2)cc1-c1nnn[nH]1)C1CCCC1 [Example 41, N-cyclopentyl-4-[({1-[2-fluoro-4-(trifluoromethyl)phenyl]cyclopropyl}carbonyl)amino]-N-methyl-2-(1H-tetrazol-5-yl)benzamide] |
| 50 | CN(C(=O)c1ccc(NC(=O)C2(c3ccc(C(F)(F)F)cc3F)CC2)cc1-c1nnn[nH]1)C1CCCCC1 [Example 43, N-cyclohexyl-4-[({1-[2-fluoro-4-(trifluoromethyl)phenyl]cyclopropyl}carbonyl)amino]-N-methyl-2-(1H-tetrazol-5-yl)benzamide] |
